For assay [1], the target named is T1, human neutrophil elastase (Homo sapiens, UniProt P08246).
T1 construct: purchased Elastin Products Company
T1 sequence (P08246 30-267): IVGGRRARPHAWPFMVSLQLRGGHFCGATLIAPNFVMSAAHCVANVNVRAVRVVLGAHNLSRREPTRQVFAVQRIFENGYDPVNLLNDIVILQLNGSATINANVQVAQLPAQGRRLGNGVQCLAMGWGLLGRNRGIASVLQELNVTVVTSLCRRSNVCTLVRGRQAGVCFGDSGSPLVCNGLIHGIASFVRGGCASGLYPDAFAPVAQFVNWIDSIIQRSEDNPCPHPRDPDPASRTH
Briefly: Inhibitory action against human neutrophil elastase (Test Example 1; fluorogenic substrate MeOSuc-AAPV-AMC, buffer with 2M NaCl, 0.002% Brij-35). It counts as biochemical. Conditions: 37° C., read-out: IC50 value (compound concentration required for 50% inhibition of human neutrophil elastase). The procedure:
Assay buffer (0.4 unit/ml HNE (human neutrophil elastase, available from Elastin Products Company), 200 mM HEPES [N-(2-hydroxyethyl)piperazine-N′-(2-ethanesulfonic acid)], pH 7.5, 2M NaCl, 0.002% Brij-35) 100 μl, water for injection 40 μl and DMSO (dimethyl sulfoxide) solution of the present compound 20 μl were mixed in a 96 well plate and the mixed solutions were pre-incubated at 37° C. for five minutes. After pre-incubation, MeOSuc-AAPV-AMC (methoxysuccinyl-alanyl-alanyl-prolyl-valyl-aminomethyl cumaride (available from Sigma Aldrich Co.) solution as fluorogenic substrate (which was dissolved in 10% DMSO solution so as to adjust to 0.5 mM) 40 μl was added to the above-prepared mixed solution so as to initiate the reaction, and the mixture was incubated at 37° C. for five minutes. The fluorescence intensity of AMC was measured at an excitation wavelength of 380 nm and a fluorescence wavelength of 460 nm and the inhibition ratio was determined.

The target of assay [2] is T1, human neutrophil elastase. Briefly: Inhibitory action 2 against human neutrophil elastase (Test Example 2; fluorogenic substrate MeOSuc-AAPV-AMC, buffer with 400 mM NaCl, 0.2 mg/ml BSA). It counts as biochemical. The following applies: 37° C., read-out: IC50 value (compound concentration required for 50% inhibition of human neutrophil elastase). The procedure:
Assay buffer (0.4 unit/ml HNE (human neutrophil elastase, available from Elastin Products Company), 200 mM HEPES [N-(2-hydroxyethyl)piperazine-N′-(2-ethanesulfonic acid)], pH 7.5, 400 mM NaCl, 0.2 mg/ml BSA (bovine serum albumin)) 100 μl, water for injection 20 μl and 1% DMSO (dimethyl sulfoxide) solution of the present compound 20 μl were mixed in a 96 well plate and the mixed solutions were pre-incubated at 37° C. for five minutes. After pre-incubation, MeOSuc-AAPV-AMC (methoxysuccinyl-alanyl-alanyl-prolyl-valyl-aminomethyl cumaride (available from Sigma Aldrich Corp.) solution as fluorogenic substrate (which was dissolved in 10% DMSO solution so as to adjust to 0.5 mM) 40 μl was added to the above-prepared mixed solution so as to initiate the reaction, and the mixture was incubated at 37° C. for five minutes. The fluorescence intensity of AMC was measured at an excitation wavelength of 380 nm and a fluorescence wavelength of 460 nm and the inhibition ratio was determined.

As for “2-[3,6-dimethyl-2,4-dioxo-1-(3-trifluoromethylphenyl)-1,2,3,4-tetrahydropyrimidin-5-yl]biphenyl-4-carbonitrile [Example 60]”, the IC50 in assay [1] was determined as 0.076 µM.

“5-[1-(-chlorophenyl)-1H-pyrazol-5-yl]-3,6-dimethyl-1-(3-trifluoromethylphenyl)pyrimidin-2,4(1H,3H)-dione [Example 21]”: the IC50 in assay [1] amounted to 0.252 µM. Same read-out and setting: the result for `CCOC(=O)Cn1c(=O)c(-c2ccnn2-c2ccc(C#N)cc2)c(C)n(-c2cccc(C(F)(F)F)c2)c1=O` [Example 3] reads 0.104 µM. As for `CCOC(=O)CCn1c(=O)c(-c2ccnn2-c2ccc(C#N)cc2)c(C)n(-c2cccc(C(F)(F)F)c2)c1=O` [Example 4, 3-[5-[1-(4-cyanophenyl)-1H-pyrazol-5-yl]-4-methyl-2,6-dioxo-3-(3-trifluoromethylphenyl)-2,3-dihydropyrimidin-1(6H)-yl]propanoic acid ethyl ester], the IC50 in assay [1] turned out to be 0.131 µM. The same measure, in the same setting: the result for `CCOC(=O)CCCn1c(=O)c(-c2ccnn2-c2ccc(C#N)cc2)c(C)n(-c2cccc(C(F)(F)F)c2)c1=O` [Example 5, 4-[5-[1-(4-cyanophenyl)-1H-pyrazol-5-yl]-4-methyl-2,6-dioxo-3-(3-trifluoromethylphenyl)-2,3-dihydropyrimidin-1(6H)-yl]butanoic acid ethyl ester] reads 0.17 µM. In the case of `Cc1c(-c2c(S(=O)(=O)NC(=O)C3CCCCC3)cnn2-c2ccc(C#N)cc2)c(=O)n(C)c(=O)n1-c1cccc(C(F)(F)F)c1` [Example 261], the IC50 in assay [2] worked out at 0.0072 µM.

As for `Cc1c(-c2c(S(C)(=O)=O)cnn2-c2ccc(C#N)cc2)c(=O)n(C)c(=O)n1-c1cccc(C(F)(F)F)c1` [Example 265], the IC50 in assay [2] amounted to 0.0237 µM. On the same count and under the same terms, the result for `CCn1c(=O)c(-c2c(C(C)(C)O)cnn2-c2ccc(C#N)cc2)c(C)n(-c2cccc(C(F)(F)F)c2)c1=O` [Example 288, 4-(5-(3-ethyl-6-methyl-2,4-dioxo-1-(3-trifluoromethylphenyl)-1,2,3,4-tetrahydropyrimidin-5-yl)-4-(2-hydroxypropan-2-yl)-1H-pyrazol-1-yl)benzonitrile] reads 0.0262 µM; that for `Cc1c(-c2c(C3(O)CCS(=O)(=O)CC3)cnn2-c2ccc(C#N)cc2)c(=O)n(C)c(=O)n1-c1cccc(C(F)(F)F)c1` [Example 293], 0.0251 µM; that for `CCn1c(=O)c(-c2c(C(C)(C)N)cnn2-c2ccc(C#N)cc2)c(C)n(-c2cccc(C(F)(F)F)c2)c1=O` [Example 297, 4-(4-(2-aminopropane-2-yl)-5-(3-ethyl-6-methyl-2,4-dioxo-1-(3-trifluoromethylphenyl)-1,2,3,4-tetrahydropyrimidin-5-yl)-1H-pyrazol-1-yl)benzonitrile], 0.0297 µM. Same read-out and setting: the figure for `CCn1c(=O)c(-c2c(C3(N)CCC3)cnn2-c2ccc(C#N)cc2)c(C)n(-c2cccc(C(F)(F)F)c2)c1=O` [Example 298] is 0.0427 µM; for `Cc1c(-c2c(CN3CC(F)(F)C3)cnn2-c2ccc(C#N)cc2)c(=O)n(C)c(=O)n1-c1cccc(C(F)(F)F)c1` [Example 305] it is 0.022 µM.

As to `Cc1c(-c2c(N3CCOCC3)cnn2-c2ccc(C#N)cc2)c(=O)n(C)c(=O)n1-c1cccc(C(F)(F)F)c1` [Example 315, 4-(5-(3,6-Dimethyl-2,4-dioxo-1-(3-trifluoromethylphenyl)-1,2,3,4-tetrahydropyrimidin-5-yl)-4-morpholino-1H-pyrazol-1-yl)benzonitrile], the IC50 in assay [2] was found to be 0.0242 µM. For `Cc1c(-c2c(N3CCN(C(C)C)CC3)cnn2-c2ccc(C#N)cc2)c(=O)n(C)c(=O)n1-c1cccc(C(F)(F)F)c1` [Example 318], the IC50 in assay [2] was determined as 0.0149 µM. The same measure, in the same setting: the result for `Cc1c(-c2ccnn2-c2ccc(C#N)cc2)c(=O)n([C@H](C)CS(N)(=O)=O)c(=O)n1-c1cccc(C(F)(F)F)c1` [Example 324, (R)-2-(5-(1-(4-Cyanophenyl)-1H-pyrazol-5-yl)-4-methyl-2,6-dioxo-3-(3-trifluoromethylphenyl)-2,3-dihydropyrimidin-1(6H)-yl)propane-1-sulfonamide] reads 0.0096 µM; that for `Cc1c(-c2ccnn2-c2ccc(C#N)cc2F)c(=O)n(C)c(=O)n1-c1cccc(C(F)(F)F)c1` [Example 326], 0.0243 µM; that for `Cc1cc(C#N)ccc1-n1nccc1-c1c(C)n(-c2cccc(C(F)(F)F)c2)c(=O)n(C)c1=O` [Example 328], 0.0248 µM. Consider `CC(=O)N1CCC(n2c(=O)c(-c3ccnn3-c3ccc(C#N)cc3)c(C)n(-c3cccc(C(F)(F)F)c3)c2=O)CC1` [Example 337], for which, in assay [2], the IC50 was found to be 0.0045 µM. In the case of `CCCN1CCC(n2c(=O)c(-c3ccnn3-c3ccc(C#N)cc3)c(C)n(-c3cccc(C(F)(F)F)c3)c2=O)C1` (stereo not shown) [Example 343], the IC50 in assay [2] worked out at 0.0073 µM. Still for that read-out and setting: the result for `Cc1c(-c2ccnn2-c2ccc(C#N)cc2)c(=O)n(C2CCN(C(=O)C(C)(C)O)CC2)c(=O)n1-c1cccc(C(F)(F)F)c1` [Example 355] reads 0.0081 µM; that for `Cc1c(-c2ccnn2-c2ccc(C#N)cc2)c(=O)n(C2CCN(C(=O)C(C)(C)N)CC2)c(=O)n1-c1cccc(C(F)(F)F)c1` [Example 357], 0.0102 µM; that for `Cc1c(-c2c(F)cnn2-c2ccc(C#N)cc2)c(=O)n(C)c(=O)n1-c1cccc(C(F)(F)F)c1` [Example 358, 4-(5-(3,6-dimethyl-2,4-dioxo-1-(3-trifluoromethylphenyl)-1,2,3,4-tetrahydropyrimidin-5-yl)-4-fluoro-1H-pyrazol-1-yl)benzonitrile], 0.0295 µM. The same measure, in the same setting: the figure for `CC(=O)N1CCC(n2c(=O)c(-c3c(F)cnn3-c3ccc(C#N)cc3)c(C)n(-c3cccc(C(F)(F)F)c3)c2=O)CC1` [Example 359] is 0.0153 µM; for `Cc1c(-c2c(Cl)cnn2-c2ccc(C#N)cc2)c(=O)n(C)c(=O)n1-c1cccc(C(F)(F)F)c1` [Example 360, 4-(4-chloro-5-(3,6-dimethyl-2,4-dioxo-1-(3-trifluoromethylphenyl)-1,2,3,4-tetrahydropyrimidin-5-yl)-1H-pyrazol-1-yl)benzonitrile] it is 0.0167 µM; for `Cc1c(-c2c(Cl)cnn2-c2ccc(C#N)cc2)c(=O)n(C(C)C(N)=O)c(=O)n1-c1cccc(C(F)(F)F)c1` (stereo not shown) [Example 361] it is 0.0063 µM. For the molecule `Cc1c(-c2c(C#N)cnn2-c2ccc(C#N)cc2)c(=O)n(C)c(=O)n1-c1cccc(C(F)(F)F)c1` [Example 363, 1-(4-Cyanophenyl)-5-(3,6-dimethyl-2,4-dioxo-1-(3-trifluoromethyl)-1,2,3,4-tetrahydropyrimidin-5-yl)-1H-pyrazole-4-carbonitrile], the IC50 in assay [2] stood at 0.0191 µM. The same measure, in the same setting: the result for `Cc1c(-c2c(C#N)cnn2-c2ccc(C#N)cc2)c(=O)n([C@@H]2CCN(C)C2)c(=O)n1-c1cccc(C(F)(F)F)c1` [Example 367] reads 0.014 µM. On the same count and under the same terms, the result for `Cc1c(-c2ccnn2-c2ccc(C#N)cc2)c(=O)n([C@H](C)CS(C)(=O)=O)c(=O)n1-c1cccc(C(F)(F)F)c1` [Example 375] reads 0.0123 µM; that for `Cc1c(-c2ccnn2-c2ccc(C#N)cc2)c(=O)n(C(C)C(=O)N(C)C)c(=O)n1-c1cccc(C(F)(F)F)c1` (stereo not shown) [Example 379], 0.0187 µM; that for `Cc1c(-c2ccnn2-c2ccc(C#N)cc2)c(=O)n(C(C)C(=O)N2CC(O)C2)c(=O)n1-c1cccc(C(F)(F)F)c1` (stereo not shown) [Example 383], 0.0128 µM. Take `Cc1c(-c2ccnn2-c2ccc(C#N)cc2)c(=O)n(C(C)CN2CCOCC2)c(=O)n1-c1cccc(C(F)(F)F)c1` (stereo not shown) [Example 386]: the IC50 in assay [2] is 0.0101 µM. As to `Cc1c(-c2ccnn2-c2ccc(C#N)cc2)c(=O)n(C(C)CN2CCC(S(C)(=O)=O)CC2)c(=O)n1-c1cccc(C(F)(F)F)c1` (stereo not shown) [Example 387], in assay [2], the IC50 turned out to be 0.0089 µM. In the case of `Cc1c(-c2ccnn2-c2ccc(C#N)cc2)c(=O)n(C(C)CN2CC(O)C2)c(=O)n1-c1cccc(C(F)(F)F)c1` (stereo not shown) [Example 390], the IC50 in assay [2] is 0.0104 µM. `Cc1c(-c2ccnn2-c2ccc(C#N)cc2)c(=O)n(C(C)CNS(C)(=O)=O)c(=O)n1-c1cccc(C(F)(F)F)c1` (stereo not shown) [Example 393]: in assay [2], the IC50 was determined as 0.0263 µM. Same read-out and setting: the result for `Cc1c(-c2ccnn2-c2ccc(C#N)cc2)c(=O)n(C(C)CCN2CCOCC2)c(=O)n1-c1cccc(C(F)(F)F)c1` (stereo not shown) [Example 399] reads 0.0129 µM; that for `Cc1c(-c2ccnn2-c2ccc(C#N)cc2)c(=O)n(C(C)CCNC2CC(F)(F)C2)c(=O)n1-c1cccc(C(F)(F)F)c1` (stereo not shown) [Example 406], 0.0129 µM.

In the case of `Cc1c(-c2ccnn2-c2ccc(C#N)cc2)c(=O)n(C(C)CCNc2ccncc2)c(=O)n1-c1cccc(C(F)(F)F)c1` (stereo not shown) [Example 408], in assay [2], the IC50 amounted to 0.0147 µM.

The record behind these values is patent publication US9040516B2, “Uracil derivative and use thereof for medical purposes” (SUMITOMO DAINIPPON PHARMA CO., LTD., priority 2011, dated 2015).
